Data taken from patent publication US9675591B2, “Methods for treating seizure disorders and pain” (THE REGENTS OF THE UNIVERSITY OF CALIFORNIA, priority 2013, dated 2017).

How the values were obtained:
[1] = tested on: 6-Hz psychomotor seizures; test: 6-Hz psychomotor seizure test (ASP); format: in vivo, mice; settings: for ED50: Mus musculus, ip, mice
Experimental: Seizures characterized by a minimal clonic phase followed by stereotyped automatistic behaviors (jaw chomping and whisker movement) were induced in mice by a low frequency (6 Hz), long-duration (3 s) stimulus. These seizures resemble automatistic behavior in patients with complex partial seizures. At varying times (0.25, 0.5, 1, 2, and 4 h) after drug treatment, individual mice (four at each time point) were challenged with sufficient current (32 or 44 mA at 6 Hz for 3 s) delivered through corneal electrodes to elicit a psychomotor seizure. Animals not displaying this behavior are considered protected.

[2] = Plasma protein binding by ultrafiltration; format: in vitro ADME; settings: rat plasma
Experimental: For intravenous application, SKA-19 was dissolved at 5 mg/mL in a mixture of 10% CremophorEL (Sigma-Aldrich, St. Louis, Mo., USA) and 90% phosphate-buffered saline and then injected at 10 mg/kg into the tail vein of Sprague-Dawley rats. At various time points after the injection, ˜100 to 200 μL of blood was collected from a tail nick into EDTA blood sample collection tubes. Plasma was separated by centrifugation and stored at −80° C. pending analysis. For intraperitoneal application SKA-19 was dissolved in Miglyol 812 neutral oil (caprylic/capric triglyceride; Trade name Neobee M5, Spectrum Chemicals, Gardena, Calif., USA) at 2 mg/mL and injected intraperitoneally at 10 and 30 mg/kg. After determining that SKA-19 plasma concentrations peaked 2 h after i.p. application, a group of 3 rats was subjected to cardiac puncture under deep isoflurane anesthesia and then sacrificed before removing brain, heart, liver, spleen and fat. Tissue samples were homogenized in 1 ml of H2O with a Brinkman Kinematica PT 1600E homogenizer and the protein precipitated with 1 ml of acetonitrile. The samples were then centrifuged at 3000 rpm and supernatants concentrated to 1 ml. Plasma and homogenized tissue samples were purified using C18 solid phase extraction cartridges. Eluted fractions corresponding to SKA-19 were dried under nitrogen and reconstituted in acetonitrile. […] Using electrospray ionization MS and selective reaction monitoring (SRM) (capillary temperature 350° C., capillary voltage 4000 V, collision energy −26 eV, positive ion mode), SKA-19 was quantified by its base peak of 182.9 m/z (C7H7N2S2^•+ fragment) and its concentration was calculated with a 9-point calibration curve from 50 nmol/L to 10 μmol/L. The percentage of plasma protein binding for SKA-19 was determined by ultrafiltration. […] The centrifugate (=free SKA-19) was directly analyzed for SKA-19 by UPLC-MS. […]

[3] = target: KCa2.2 (SK2) (Rattus norvegicus, UniProt P70604); test: Whole-cell patch-clamp, KCa2.2; format: cell-based, human; settings: 250 nM free intracellular Ca2+
Experimental: (§1) HEK-293 or COS-7 cells stably expressing hKCa2.1, rKCa2.2, and hKCa2.3 have been described previously (Sankaranarayanan et al., 2009). Cells were held at −80 mV and KCa currents elicited by dialysis with a K^+ aspartate based internal containing 250 nM free Ca^2+ (pH 7.2, 290 mOsm, pipette resistance 1.5 MΩ). To reduce currents from native chloride channels, Na^+ aspartate Ringer was used as an external solution. KCa2 currents were recorded with 200-ms voltage ramps from −120 to +40 mV applied every 10 s, and the fold increase of slope conductance at −80 mV by drug was taken as a measure of channel activation. Data analysis, fitting, and plotting were performed with IGOR-Pro (Wavemetrics, Lake Oswego, Oreg., USA) and Origin 9.0 (OriginLab, Northampton, Mass., USA).

[4] = target: KCa2.1 (Homo sapiens (Human), UniProt Q92952); test: Whole-cell patch-clamp, KCa2.1; format: cell-based
Experimental: as §1

[5] = target: Kv2.1 (Homo sapiens (Human), UniProt Q14721); test: Voltage-clamp, Kv2.1 in HEK-293 cells; format: cell-based; settings: read-out: EC50 or IC50, Kv2.1
Experimental: All experiments were conducted at room temperature (22-24° C.) with an EPC-10 amplifier and Pulse software (HEKA, Lambrecht/Pfalz, Germany) in the whole-cell mode of the patch-clamp technique. Human embryonic kidney (HEK)-293 cell lines stably expressing hNav1.1, hNav1.5, hNav1.7 channels (generously provided by Dr. Christopher Lossin, University of California Davis), hNav1.4 (Frank Lehmann-Horn, University of Ulm), or hKv2.1 channels (James Trimmer, University of California Davis) were bathed in extracellular solution containing (in mM): 160 NaCl; 4.5 KCl; 1 MgCl2; 2 CaCl2; 10 HEPES [pH was adjusted to 7.4 using NaOH (310 mOsm)]. Pipettes were filled with intracellular solution containing (in mM): 145 KF; 2 MgCl2; 10 ethylene glycol tetraacetic acid; 10 HEPES (pH adjusted to 7.2 with KOH; 300 mOsm). Neuroblastoma N1E-115 cells (ATCC, Manassa, Va., USA) expressing Nav1.2 were patched with a CsF internal solution consisting of (in mM): 10 NaF; 110 CsF; 20 CsCl; 2 ethylene glycol tetraacetic acid; 10 HEPES (CsOH to pH 7.35; 300 mOsm). All pipette tip resistances were 2-4 MΩ. Series resistances of 3-10 MΩ were compensated 40-80%. All cells were voltage-clamped to a holding potential of −90 mV unless otherwise specified. The sampling frequency was 5 kHz. Na^+ currents were elicited by 30-ms pulse to 0 mV from −90 mV applied every 10 s. […]

Sequence of Kv2.1 (Q14721 whole entry): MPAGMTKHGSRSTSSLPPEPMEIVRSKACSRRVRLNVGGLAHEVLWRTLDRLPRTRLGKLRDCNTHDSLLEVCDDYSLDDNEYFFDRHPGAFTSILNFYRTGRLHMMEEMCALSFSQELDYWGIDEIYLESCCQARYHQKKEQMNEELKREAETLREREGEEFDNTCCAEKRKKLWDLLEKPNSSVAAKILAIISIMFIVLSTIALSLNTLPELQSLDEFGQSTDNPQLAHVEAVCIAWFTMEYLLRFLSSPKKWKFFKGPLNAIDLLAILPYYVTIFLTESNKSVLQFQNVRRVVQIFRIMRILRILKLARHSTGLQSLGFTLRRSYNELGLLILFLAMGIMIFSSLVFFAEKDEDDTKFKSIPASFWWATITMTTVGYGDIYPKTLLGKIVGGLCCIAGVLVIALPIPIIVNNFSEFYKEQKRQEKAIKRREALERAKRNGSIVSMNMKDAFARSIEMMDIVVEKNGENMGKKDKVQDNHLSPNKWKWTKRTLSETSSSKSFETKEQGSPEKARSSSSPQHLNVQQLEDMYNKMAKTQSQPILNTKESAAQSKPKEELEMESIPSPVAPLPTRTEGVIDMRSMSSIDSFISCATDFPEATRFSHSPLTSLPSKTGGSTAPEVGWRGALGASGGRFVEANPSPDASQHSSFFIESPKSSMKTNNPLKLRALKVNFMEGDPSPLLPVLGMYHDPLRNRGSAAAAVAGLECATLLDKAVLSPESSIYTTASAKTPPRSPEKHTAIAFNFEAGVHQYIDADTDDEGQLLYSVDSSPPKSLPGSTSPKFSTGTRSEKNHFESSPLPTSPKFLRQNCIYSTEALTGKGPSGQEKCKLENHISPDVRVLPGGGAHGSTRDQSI

Question: What does the source list for Nc1nc2ccc(SC(F)(F)F)cc2s1 [SKA-19, 6-((trifluoromethyl)thio)benzo[d]thiazol-2-amine]?
Answer: protection in 6-Hz test, initial screen ([1]; 10 mg/kg i.p., all other tested time points): partial protection; protection in 6-Hz test, initial screen ([1]; 2 hours after i.p. 10 mg/kg): full protection (4 out of 4 animals); ED50 ([1]; 2 h, 32 mA): 12.2 mg/kg; ED50 ([1]; current intensity 44 mA): 28.1 mg/kg; fraction unbound [2]: 0.11 to 0.18; fraction unbound at 15 min [2]: 0.11; unbound (free) fraction [2]: 9.0±0.4%; EC50 ([3]; read-out: EC50 or IC50, KCa2.2): 14 µM; maximal increase of KCa2 currents ([3]; stated for KCa2 currents): 30 fold; EC50 ([4]; 250 nM free intracellular Ca2+, read-out: EC50 or IC50, KCa2.1): > 100 µM; effect on KCa2.1 currents ([4]; 100 and 200 μM): very weak effects; IC50 [5]: 22.3 ± 5.6 µM
